The record followed here is ChEMBL document CHEMBL3108691, “Structural investigation of cycloheptathiophene-3-carboxamide derivatives targeting influenza virus polymerase assembly” (J Med Chem, 2013).

Data set [1] deals with PA/PB1 (Influenza A virus (A/Puerto Rico/8/1934(H1N1)), UniProt P03431+P03433). Nature of the data set: Inhibition of Influenza A virus (A/Puerto Rico/8/34(H1N1)) His6-tagged PA (239 to 716) interaction with GST-tagged PB1 (1 to 25) expressed in Escherichia coli BL21 (DE3) by ELISA. A general note: In an ELISA, binding on a coated surface is turned into a signal by an enzyme label.

For data set [2], the system named is Influenza A virus. It is filed as functional, organism-based. The following applies: A/Puerto Rico/8/1934(H1N1), MDCK, 48 h.
The nature of data set [3]: Cytotoxicity against MDCK cells assessed as cell viability after 48 hrs by MTT assay. The note with it: dog. The data set is classed as cell-based, Canis lupus familiaris. (In general: Tetrazolium assays rely on reduction of a dye to a coloured formazan, in cell work by metabolically active cells.)
A short description of data set [4]: Cytotoxicity against HEK293 cells assessed as cell viability after 24 hrs by MTT assay. The data set is classed as cell-based. The note with it: human.
Data set [5] is described as follows: cells. The note with it: Influenza A virus, HEK293, 24 h.
Data set [6] has as its system Influenza A virus. The data set is classed as functional, organism-based. The note with it: A/Puerto Rico/8/1934(H1N1), MDCK, 12 h.
The subject of data set [7] is Influenza A virus. It is filed as functional, organism-based, Influenza A virus (A/Wisconsin/67/2005(H3N2)). The following applies: MDCK, 48 h.
Data set [8] concerns Influenza B virus. Nature of the data set: microbe, parasite or virus in culture. The note with it: B/Lee/1940, MDCK, 48 h.
Data set [9] deals with Influenza A virus. It is filed as functional, organism-based. The following applies: A/Padova/72/2011(H1N1), MDCK, 48 h.
For data set [10], the system named is Influenza A virus. It is filed as functional, organism-based. The note with it: A/Padova/30/2011(H1N1), MDCK, 48 h.
The subject of data set [11] is Influenza A virus. It is filed as functional, organism-based. The note with it: A/Padova/253/2011(H1N1), MDCK, 48 h.

The structures appear in SMILES notation.

Regarding `O=C(Nc1sc2c(c1C(=O)O)CCCCC2)c1ccccc1F`, the IC50 (usually the point on the concentration scale where inhibition reaches its midpoint) in [1] was 200 µM. In addition, the response in [2] was half-maximal at 76 µM (EC50). The CC50 (in general, the concentration giving 50% cytotoxicity) at 48 h in data set [3] was above 250 µM. For the same compound, the CC50 at 24 h in data set [4] is above 250 µM.

With `NC(=O)c1c(NC(=O)c2ccccc2F)sc2c1CCCC2`, the IC50 in data set [1] was above 200 µM. For the same compound, in data set [2], the EC50 (usually the concentration needed to bring the measured effect to its halfway point) was above 100 µM. In addition, the CC50 at 48 h in data set [3] turned out to be 118 µM. For the same compound, the CC50 at 24 h in data set [4] stood at 31 µM.

On to `O=C(Nc1sc2c(c1C(=O)O)CCC2)c1ccccc1F`, for which inhibition in data set [1] was half-maximal at 159 µM (IC50). In data set [2], the EC50 was 77 µM. Besides, in [3], the CC50 at 48 h was above 250 µM. In addition, the CC50 at 24 h in [4] was above 250 µM.

On to `CCOC(=O)c1c(NC(=O)c2ccc(OC)cc2)sc2c1CCCCC2`, for which, in data set [1], the IC50 was above 200 µM. For the same compound, the EC50 in [2] was 95 µM. In addition, in data set [3], the CC50 at 48 h was above 250 µM. In addition, in [4], the CC50 at 24 h was above 250 µM.

In data set [1], `NC(=O)c1c(NC(=O)c2ccccc2F)sc2c1CCC2` yielded an IC50 above 200 µM.

In turn, `CCOC(=O)c1c(NC(=O)c2ccccc2F)sc2c1CCCCC2` yielded an IC50 in data set [1] of 200 µM. For the same compound, the EC50 in [2] is 78 µM. The CC50 at 48 h in [3] was above 250 µM. For the same compound, the CC50 at 24 h in data set [4] was above 250 µM.

`CCOC(=O)c1c(NC(=O)c2ccc(F)cc2)sc2c1CCCCC2` gave an IC50 in data set [1] above 200 µM. The compound further returned an EC50 in [2] of 91 µM. Besides, the CC50 at 48 h in data set [3] was above 250 µM. Besides, the CC50 at 24 h in [4] is above 250 µM.

Regarding `CCOC(=O)c1c(NC(=O)c2ccccc2Cl)sc2c1CCCCC2`, the IC50 in data set [1] was above 200 µM. In [2], this compound displayed a concentration for a half-maximal effect (EC50) of 94 µM. For the same compound, the CC50 at 48 h in [3] was above 250 µM. Moreover, the CC50 at 24 h in data set [4] was above 250 µM.

In the case of `CCOC(=O)c1c(NC(=O)c2ccc(Cl)cc2)sc2c1CCCCC2`, in data set [1], the IC50 was above 200 µM. For the same compound, the EC50 in data set [2] came to 89 µM. Also, the CC50 at 48 h in data set [3] is above 250 µM. Further, in [4], the CC50 at 24 h is above 250 µM.

`O=C(Nc1sc2c(c1C(=O)O)CCCCC2)c1ccc(F)cc1` had an IC50 in [1] above 200 µM.

For the compound `O=C(Nc1sc2c(c1C(=O)O)CCCCC2)c1ccccc1Cl`, in data set [1], the IC50 is above 200 µM.

In turn, `O=C(Nc1sc2c(c1C(=O)O)CCCCC2)c1ccc(Cl)cc1` yielded an IC50 in data set [1] above 200 µM.

The compound `COc1ccc(C(=O)Nc2sc3c(c2C(=O)O)CCCCC3)cc1` yielded an IC50 in data set [1] above 200 µM.

`O=C(Nc1sc2c(c1C(=O)Nc1ccccn1)CCCC2)c1ccccc1F` came in with an IC50 in data set [1] above 200 µM.

Compound `O=C(Nc1sc2c(c1C(=O)Nc1ccccn1)CCC2)c1ccccc1F` yielded an IC50 in data set [1] above 200 µM.

Compound `CCOC(=O)c1c(NC(=O)c2ccccc2F)sc2c1CCC2` displayed an IC50 in [1] above 200 µM. Moreover, the half-maximal effective concentration (EC50) in data set [2] was above 100 µM. In addition, the CC50 at 48 h in data set [3] was above 250 µM. Besides, the CC50 at 24 h in data set [4] is above 250 µM.

In data set [1], `CSCC[C@H](N)C(=O)N[C@@H](CC(=O)O)C(=O)N[C@H](C(=O)N[C@@H](CC(N)=O)C(=O)N1CCC[C@H]1C(=O)N[C@H](C(=O)N[C@@H](CC(C)C)C(=O)N[C@@H](CC(C)C)C(=O)N[C@@H](Cc1ccccc1)C(=O)N[C@@H](CC(C)C)C(=O)N[C@@H](CCCCN)C(=O)N[C@H](C(=O)N1CCC[C@H]1C(=O)N[C@@H](C)C(=O)N[C@@H](CCC(N)=O)C(=O)O)C(C)C)[C@@H](C)O)C(C)C` showed an IC50 of 35 µM. The same compound showed an EC50 in data set [2] of 40 µM. In addition, in data set [3], the CC50 at 48 h was above 100 µM. The CC50 at 24 h in [4] is above 100 µM.

The compound `O=C(Nc1sc2c(c1C(=O)Nc1ccccn1)CCCCC2)c1ccccc1` showed an IC50 in [1] of 87 µM.

Consider `O=C(Nc1sc2c(c1C(=O)Nc1ccccn1)CCCCC2)c1cccc(F)c1`, for which the IC50 in data set [1] was above 200 µM.

As for `O=C(Nc1sc2c(c1C(=O)Nc1ccccn1)CCCCC2)c1ccc(F)cc1`, the IC50 in data set [1] worked out at 99 µM. That is a double-digit micromolar value.

In the case of `O=C(Nc1sc2c(c1C(=O)Nc1ccccn1)CCCCC2)c1ccccc1Cl`, in data set [1], the IC50 is 134 µM.

Turning to `O=C(Nc1sc2c(c1C(=O)Nc1ccccn1)CCCCC2)c1ccc(Cl)cc1`, 32 µM corresponded to half-maximal inhibition in data set [1] (IC50).

In data set [1], `O=C(Nc1sc2c(c1C(=O)Nc1ccccn1)CCCCC2)c1ccc(F)cc1Cl` yielded an IC50 above 200 µM.

For the compound `O=C(Nc1sc2c(c1C(=O)Nc1ccccn1)CCCCC2)c1ccc(Cl)cc1Cl`, in data set [1], the IC50 was above 200 µM.

Take `O=C(Nc1ccccn1)c1c(NC(=O)C2CCCCC2)sc2c1CCCCC2`: in data set [1], the IC50 was above 200 µM.

Consider `O=C(Cc1ccc(F)cc1)Nc1sc2c(c1C(=O)Nc1ccccn1)CCCCC2`, for which, in [1], the IC50 was above 200 µM. In data set [2], this compound displayed an EC50 of 16 µM. In data set [3], the CC50 at 48 h is above 250 µM. Further, the CC50 at 24 h in data set [4] was 250 µM.

Consider `O=C(Cc1ccc(Cl)cc1)Nc1sc2c(c1C(=O)Nc1ccccn1)CCCCC2`, for which the IC50 in data set [1] is above 200 µM. In addition, in data set [2], the midpoint of the response, the EC50, lay at 19 µM. In [3], the CC50 at 48 h was above 250 µM. Besides, in [4], the CC50 at 24 h was above 250 µM.

As to `O=C(Cc1ccccc1)Nc1sc2c(c1C(=O)Nc1ccccn1)CCCCC2`, in [1], the IC50 is above 200 µM. This compound gave an EC50 in data set [2] of 19 µM. Further, in [3], the CC50 at 48 h was above 250 µM. Moreover, the CC50 at 24 h in data set [4] is 220 µM.

Turning to `O=C(CCc1ccc(F)cc1)Nc1sc2c(c1C(=O)Nc1ccccn1)CCCCC2`, the IC50 in data set [1] was above 200 µM.

`O=C(CC1CCCCC1)Nc1sc2c(c1C(=O)Nc1ccccn1)CCCCC2` showed an IC50 in data set [1] above 200 µM.

`O=C(CCc1ccc(Cl)cc1)Nc1sc2c(c1C(=O)Nc1ccccn1)CCCCC2` showed an IC50 in data set [1] above 200 µM.

For `O=C(CCc1ccccc1)Nc1sc2c(c1C(=O)Nc1ccccn1)CCCCC2`, the half-maximal inhibitory concentration (IC50) in data set [1] is above 200 µM.

Turning to `O=C(Cc1ccc2ncccc2c1)Nc1sc2c(c1C(=O)Nc1ccccn1)CCCCC2`, the 50% inhibitory concentration (IC50) in data set [1] came out at 48 µM. The EC50 in data set [2] is 58 µM. In addition, the CC50 at 48 h in [3] was above 250 µM. Further, in [4], the CC50 at 24 h is above 250 µM.

For `COc1c(CC(=O)Nc2sc3c(c2C(=O)Nc2ccccn2)CCCCC3)sc2ccccc12`, in data set [1], the IC50 came to 90 µM. For the same compound, the EC50 in data set [2] was 61 µM; in data set [5], above 100 µM; in data set [6], 6 µM. For the same compound, the CC50 at 48 h in data set [3] was above 250 µM. The CC50 at 24 h in data set [4] was above 250 µM.

As for `Nc1sc2c(c1C(=O)Nc1ccccn1)CCCCC2`, in data set [1], the IC50 amounted to 35 µM. In other words, the double-digit micromolar range.

`NC(=O)c1c(NC(=O)c2ccccc2F)sc2c1CCCCC2` had an IC50 in data set [1] above 200 µM.

For the compound `NC(=O)c1ncn([C@@H]2O[C@H](CO)[C@@H](O)[C@H]2O)n1` [RIBAVIRIN], the EC50 stood at 8 µM in data set [2]; 15 µM in data set [5]; 12 µM in data set [7]; 6 µM in [8]; 6 µM in [9]; 7 µM in data set [10]. Besides, the EC50 was 11 µM in data set [11] and 2 µM in data set [6]. The CC50 at 48 h in data set [3] is above 250 µM. Besides, the CC50 at 24 h in data set [4] is above 250 µM.
